From patent publication US10765687B2, “Methods and compounds to inhibit enveloped virus release” (Northwestern University, priority 2012, dated 2020)
pKd: −log10 of the molar value.

Columns and labels:
COS-1 cells = assay: Cell growth based on cell lysate actin levels (Western); details: versus DMSO-treated
Method: The levels of actin of cell lysates prepared from DMSO-treated, […]-treated and N20-treated cells were determined by SDS-PAGE followed by Western analysis where the immunoblot were probed with mouse anti-actin antibody.

[1] = test system: ASLV virus like particles (VLPs); assay: ASLV VLP release from 293 cells, Western blot with anti-ASLV Gag antibody; assay type: cell-based; details: FIG. 6A, compared with untreated cells
Method: 293/E cells were cultured in DMEM supplemented with 10% fetal bovine serum, penicillin (1,000 units/ml), and streptomycin (1,000 μg/ml) to 50% confluence at 37° C. Expression of plasmids from p2036 was high in 293/E cells because these cells stably express the EBNA1 protein of EBV and the p2036 constructs contain the EBV FR plasmid maintenance element that EBNA 1 binds. Therefore 293/E cells were used when proteins expressed from p2036 were to be detected by western analysis. In all experiments, 24-well plates of 293/E cells were transfected with 0.5 μg of p2036-ASLV Gag with the X-treme Gene9 transfection reagent (Roche Diagnostics, Alameda, Calif., USA) according to the manufacturer's instructions. After 24 h after DNA transfection, the cells were washed with 1×DPS that contained CaCl2 (0.1 mM) and MgCl2 (1 mM) [Gibco #14040-133], and 1 ml of cell culture medium (10% FBS, 1% Penicillin/Streptomycin) containing CaCl2 (0.5 mM) and MgCl2 (5 mM) was added. […]
For the budding assay, both media and cell lysate fractions were collected. […] After blocking of the membrane with wash buffer (10 mM Tris-HCl, pH 8.0, 150 mM NaCl, and 0.1% Tween 20) containing 5% nonfat dry milk, ASLV Gag proteins were detected with an AMV MA (p19) directed monoclonal antibody (mAb) and an anti-mouse IgG-HRP secondary antibody for ECL (Denville Scientific; Metuchen, N.J.).

WWP2 (SEQ ID NO:24) = molecular target: T1, WWP2 (SEQ ID NO:24) (Homo sapiens, UniProt O00308); assay: Epic label-free binding assay of compounds to immobilized WWP2; details: Epic label-free binding, WWP2 as target; read-out: Kd
T1 construct: poly-His (pET28b leader with thrombin site) (N, cleaved yes); made in house; host or cells: E. coli BL21 DE3
T1 sequence (O00308 with tags, fused parts or gaps): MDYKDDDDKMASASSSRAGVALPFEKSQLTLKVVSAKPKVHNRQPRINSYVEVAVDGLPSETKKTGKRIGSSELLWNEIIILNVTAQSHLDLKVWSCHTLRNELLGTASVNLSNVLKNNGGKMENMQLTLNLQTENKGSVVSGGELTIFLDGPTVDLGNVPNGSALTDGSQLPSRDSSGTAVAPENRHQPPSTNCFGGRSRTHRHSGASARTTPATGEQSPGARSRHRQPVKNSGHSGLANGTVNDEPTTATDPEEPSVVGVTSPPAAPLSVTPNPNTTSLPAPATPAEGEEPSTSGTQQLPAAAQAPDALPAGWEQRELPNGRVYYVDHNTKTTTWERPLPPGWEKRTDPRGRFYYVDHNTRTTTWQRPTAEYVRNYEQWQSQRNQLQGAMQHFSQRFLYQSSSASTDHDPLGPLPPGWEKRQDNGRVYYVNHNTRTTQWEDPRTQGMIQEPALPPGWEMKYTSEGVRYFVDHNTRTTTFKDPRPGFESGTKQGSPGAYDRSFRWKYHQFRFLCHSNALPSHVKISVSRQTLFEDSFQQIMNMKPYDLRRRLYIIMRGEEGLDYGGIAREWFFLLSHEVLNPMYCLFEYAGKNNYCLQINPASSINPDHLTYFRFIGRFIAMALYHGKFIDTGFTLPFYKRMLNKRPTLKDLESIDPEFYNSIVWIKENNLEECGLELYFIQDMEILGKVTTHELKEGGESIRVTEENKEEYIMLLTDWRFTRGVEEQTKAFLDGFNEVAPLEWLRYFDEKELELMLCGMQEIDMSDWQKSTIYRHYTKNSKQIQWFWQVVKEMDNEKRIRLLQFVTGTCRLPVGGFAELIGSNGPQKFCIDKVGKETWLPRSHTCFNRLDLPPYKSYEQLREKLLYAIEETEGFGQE
Method: Another preferred embodiment of an in vitro screening method is depicted in FIG. 3. In this method, the ability of the candidate compound 204 to directly interact with the cellular ESCRT-linked component protein (for example, Nedd4 family of polypeptides [for example, WWP1 (SEQ ID NO:29), WWP2 (SEQ ID NO:24), Nedd4 L, among others]) or TGS101 is evaluated. According to this embodiment, a cellular ESCRT component protein 202 is preferably immobilized to a substrate 201 (for example, a microtiter plate) via a linking group 203 (for example, an amine group). The substrate preferably includes an optional reference area that provides a control to prevent non-specific interactions with non-mobilized ESCRT complex protein 202 with substrate 201. The substrate 201 is washed and irradiated with broadband light so that a baseline refractive index is measured. Test compound 204 is added to the system to permit its binding to the immobilized ESCRT component protein 202 to form a resultant associative complex 205. The substrate 201 is irradiated with broadband light again to detect a change in the wavelength of the reflected light.
High sensitivity biochemical plates (PerkinElmer Cat. No. 6057468) are used in WWP2 (SEQ ID NO:24) binding assay to maximize protein immobilization. […] Because compound stocks are in DMSO that affects the Epic label-free readout, the compound plates were prepared by Echo550 acoustic dispenser to keep DMSO content balanced for all wells. […]
The binding of compounds to WWP2 (SEQ ID NO:24) was measured on the EnSpire label-free plate reader. After 25 minutes of thermal equilibration, a baseline reading was taken on the label-free plates with protein immobilized in assay buffer. […] The final reading was taken after 25 min of thermal equilibration and over a period of 60 minutes. The label-free responses were measured as shifts in reflected wavelength and were expressed in picometers (pm). Results were analyzed using the EnSpire label-free user interface software. […]

HIV-1 = HIV-1 release from T-cells in culture, HIV-1 CA protein in media by ELISA; details: T cells contacted with compound then infected with HIV-1
Text: These compounds were further evaluated as antiviral inhibitors of virus budding and release using the methods disclosed herein.

Row | Structure (SMILES) | Intensity of actin bands of cell lysates (COS-1 cells) | Release of ASLV VLPs from cells [1] | pKd (WWP2 (SEQ ID NO:24)) | HIV-1 particle release (in words) (HIV-1)
1 | Cl.NC(CO)C(=O)NNCc1ccc(O)c(O)c1O (racemic) [Benserazide Hydrochloride, (RS)-2-amino-3-hydroxy-N′-(2,3,4-trihydroxybenzyl) propanehydrazide hydrochloride] | essentially comparable for all samples | budding defect | 5.10 | significant reduction in HIV-1 particle release
2 | CN(C)[C@@H]1C(O)=C(C(N)=O)C(=O)[C@@]2(O)C(=O)C3=C(O)c4c(O)cccc4[C@@](C)(O)[C@H]3[C@H](O)[C@@H]12 [Oxytetracycline, (4S,4aR,5S,5aR,6S,12aS)-4-(dimethylamino)-3,5,6,10,11,12a-hexahydroxy-6-methyl-1,12-dioxo-1,4,4a,5,5a,6,12,12a-octahydrotetracene-2-carboxamide] | essentially comparable for all samples | budding defect | 4.97 | significant reduction in HIV-1 particle release
